In one experiment the target is TRPML1 (Homo sapiens, UniProt Q9GZU1). The experiment in a line: Calcium flux in HEK293 overexpressing TRPML1 plasma membrane variant (FLIPR, Calcium 6 dye). Format: cell-based. The conditions noted are these: HEK293/TRPML1-PM clone A5 cells; 4-parameter logistic fit; read-out: TRPML1 calcium flux (FLIPR) dose response: EC50. From the text: Example B1. Calcium Flux in HEK293 Overexpressing TRPML1 Plasma Membrane Variant—Calcium 6 Dye
Cells: HEK293/TRPML1-PM clone A5, clonal cell line containing mutant TRPML1 (both N- and C-terminal dileucine targeting motifs deleted) that localizes to the plasma membrane
Plates: Perkin Elmer Viewplate cat. #6007460, black optically clear, tissue culture treated 384-well plate
Calcium dye: Molecular Devices FLIPR Calcium 6 Assay Kit, cat. #R8190 or Fluo-4 Direct from Thermo Fisher, cat. #F10471
Tips: Molecular Devices 384-well FLIPR Tetra black tips, cat. #9000-0764 Example B1.2 Method
HEK293/TRPML1-PM clone A5 cells were trypsinized from flasks, counted, then diluted in media to 15,000 cells per 25 μL, and seeded into a black, 384-well viewplate, and cultured overnight.
One vial of calcium 6 dye was diluted with 10 mL of assay buffer (HBSS+20 mM HEPES pH 7.4) and 25 μL of the dilution was added per well to the cells.
After incubating for 2 hours at 37° C., the plate was moved to the FLIPR in the read position.
The compounds were diluted in EMEM with 0.125% FBS to 5× concentration and loaded in a 384-well plate according to the desired plate map for the assay, including DMSO alone and carbachol controls, then the plate was moved to the FLIPR in the source 2 position.
A box of tips was placed in the source 1 position within the FLIPR to complete the assay set up.
Once the run was started, an initial baseline fluorescent measurement was performed for 10 seconds (470-495 nm excitation and 515-575 nm emission) prior to adding the compounds.
12.5 μL of 5× test compound, DMSO alone, or carbachol were added via the FLIPR and real-time fluorescence measurements were performed for an additional 170 seconds with 1 read per second.
The data was normalized to baseline by calculating maximum fluorescence minus minimum fluorescence and plotted as response (fold) over the baseline versus log ([…] concentration). The EC50 was determined using a 4-parameter logistic curve fit in Graphpad Prism 9.

The subject of a further experiment is TFEB. Description: TFEB translocation assay in HeLa cells (nuclear to cytoplasmic TFEB ratio, high-content imaging). Format: cell-based. The conditions noted are these: Homo sapiens, 1.5 h, 90 mins incubation at 37° C., ratio of nuclear to cytoplasmic TFEB. The method, then:
Example B2. TFEB Translocation Assay
Rabbit TFEB antibody, Cell Signaling Technology #4240S
PFA 16% MeOH-free, Election Microscopy Sciences #50-980-487
HCS CellMask Deep Red, ThermoFisher Scientific #H32721
Plates: Perkin Elmer Phenoplate #605730 black optically clear, tissue culture treated 384-well plate
Example B2.2 Method, Day 1: Cells Seeded in 384WP
Cells were seeded in the afternoon. The outer one row of the plate was not used to avoid outer well edge effects.
HeLa cells were detached using trypsin, and the cells were counted using a cell counter.
4000 HeLa cells were seeded per well in […] growth media (DMEM with 10% FBS, 1 mM sodium pyruvate and Pen-Strep).
Example B2.3 Method, Day 2: Assay with TRPML1 Compounds+Staining
Compounds were added to cells using a Tecan D300e dispenser.
Cells were incubated for 90 mins at 37° C. with the compounds (compound range: 80 nM-[…] (2× step dilution—8 dilution steps, 3 replicates per condition)
The cells were fixed by adding 16.5 μL of 16% PFA (4% final) and incubating for 15 min at room temperature.
The cells were washed with 3× in PBS-TX (PBS+0.1% Triton X-100)−1×100 μL followed by 2×50 μL.
The cells were blocked and permeabilized in 30 μL of blocking buffer (PBS-TX+5% goat serum) for 1 h.
The cells were incubated with TFEB antibody (1:200, CST 4240S) in 30 μL blocking buffer overnight at 4° C. The plates were kept damp to avoid evaporation.
Example B2.4 Method, Day 3: Staining+Imaging
The cells were washed 3× in PBS-TX—3×100 μL with a Biotek EL406 washer.
The cells were incubated with Goat anti-Rb Alexa-Fluor 488 (1:2000), cell mask (1:10,000) and Hoechst (1:10,000) in 30 μL blocking buffer for 1 h at room temperature. The solution was dispensed using a 5 μL peristaltic cassette (EL406).
The cells were washed 3× in PBS-TX—3×100 μL with a EL406 washer, then […] PBS was dispensed using a 5 μL peristaltic cassette (EL406).
The cells were imaged on an Operetta CLS High-content imaging system using a 20× water immersion objective (NA 1.0) the same day.
Image analysis was performed using Harmony V4.9 (Perkin Elmer). Briefly, nuclei were segmented from background-corrected images using Hoechst intensity, and cell body segmented using HCS CellMask DeepRed. A sliding parabola filter was applied to the AlexaFluor 488 channel (TFEB), before sum pixel intensity in the nuclear and cytoplasmic regions was calculated. A ratio of nuclear to cytoplasmic TFEB was used to define TFEB translocation from the cytosolic to nuclear compartment. The EC50 values derived by fitting the data to a sigmoidal dose response curve using Prism 9 (Graphpad).

Our source for the EC50 values is patent US20250340510A1, “Substituted Phenylbenzenesulfonamide Derivatives and Uses Thereof” (Nine Square Therapeutics Corporation, priority 2022, published 2025).

Sequence of TRPML1 (Q9GZU1 17-572 limits assumed): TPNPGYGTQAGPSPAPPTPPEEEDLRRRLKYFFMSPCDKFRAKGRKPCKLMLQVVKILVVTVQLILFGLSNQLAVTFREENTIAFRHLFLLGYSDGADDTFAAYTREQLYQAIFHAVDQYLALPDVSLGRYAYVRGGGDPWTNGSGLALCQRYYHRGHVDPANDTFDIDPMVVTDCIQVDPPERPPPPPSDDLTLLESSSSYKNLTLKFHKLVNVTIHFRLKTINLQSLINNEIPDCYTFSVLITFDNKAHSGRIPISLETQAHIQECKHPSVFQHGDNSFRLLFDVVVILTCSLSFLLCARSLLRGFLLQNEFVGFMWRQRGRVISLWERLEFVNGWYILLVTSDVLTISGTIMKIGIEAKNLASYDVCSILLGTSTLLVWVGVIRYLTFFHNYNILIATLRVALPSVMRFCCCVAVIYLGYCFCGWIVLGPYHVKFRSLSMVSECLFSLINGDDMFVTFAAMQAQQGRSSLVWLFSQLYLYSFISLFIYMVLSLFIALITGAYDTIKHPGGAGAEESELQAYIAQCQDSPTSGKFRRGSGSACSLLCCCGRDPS

`CC(C)CCN(C)c1ccccc1NS(=O)(=O)c1ccc(S(=O)(=O)N(C)C)cc1` [Compound 6, N1-(2-(isopentyl(methyl)amino)phenyl)-N4,N4-dimethylbenzene-1,4-disulfonamide]: the values for the EC50 on TRPML1 and with TFEB (HeLa) were 0.29 µM and 4.86 µM, respectively.
The like results for `CN(CC1(C)CCOCC1)c1ccccc1NS(=O)(=O)c1ccc(S(=O)(=O)N(C)C)cc1` [Compound 10, N1,N1-dimethyl-N4-(2-(methyl((4-methyltetrahydro-2H-pyran-4-yl)methyl)amino)phenyl)benzene-1,4-disulfonamide] were, in that order, 0.87 µM and 2.34 µM.
For `CN(c1c(F)cccc1NS(=O)(=O)c1ccc(S(=O)(=O)N(C)C)cc1)C1CCCCC1` [Compound 12, N1-(2-(cyclohexyl(methyl)amino)-3-fluorophenyl)-N4,N4-dimethylbenzene-1,4-disulfonamide], the half-maximal effective concentration (EC50) – broadly, the midpoint of the concentration-response curve – at TRPML1 was 0.72 µM; with TFEB (HeLa), less than 0.08 µM.
The like results for `CN(Cc1ccsc1)c1ccccc1NS(=O)(=O)c1ccc(S(=O)(=O)N(C)C)cc1` [Compound 13, N1,N1-dimethyl-N4-(2-(methyl(thiophen-3-ylmethyl)amino)phenyl)benzene-1,4-disulfonamide] were, in that order, 0.67 µM and 1.35 µM.
`CN(CC1CC1)c1ccccc1NS(=O)(=O)c1ccc(S(=O)(=O)N(C)C)cc1` [Compound 14, N1-(2-((cyclopropylmethyl) (methyl)amino)phenyl)-N4,N4-dimethylbenzene-1,4-disulfonamide]: the concentration for a half-maximal effect (EC50) on TRPML1 was found to be 1.56 µM; in the experiment with TFEB (HeLa), 2.03 µM.
The matching figures for `CN(c1ccccc1NS(=O)(=O)c1ccc(S(=O)(=O)N(C)C)cc1)C1(C)CCCCC1` [Compound 17, N1,N1-dimethyl-N4-(2-(methyl(1-methylcyclohexyl)amino)phenyl)benzene-1,4-disulfonamide]: 0.19 µM and 0.45 µM.
Take `CN(c1ccccc1NS(=O)(=O)c1ccc(S(=O)(=O)N(C)C)cc1)C1CCOC1` (stereo not shown) [Compound 18, N1,N1-dimethyl-N4-(2-(methyl(tetrahydrofuran-3-yl)amino)phenyl)benzene-1,4-disulfonamide]: the results for the 50% effective concentration (EC50) on TRPML1 and in the experiment with TFEB (HeLa) were 1.14 µM and more than 9.9 µM, respectively.
The matching figures for `CN(c1ccccc1NS(=O)(=O)c1ccc(S(=O)(=O)N(C)C)cc1)C1CCC(C)(C)C1` (stereo not shown) [Compound 20, N1-(2-((3,3-dimethylcyclopentyl)(methyl)amino)phenyl)-N4,N4-dimethylbenzene-1,4-disulfonamide]: 0.26 µM and 0.27 µM.
`CN(CC1CCCCC1)c1ccccc1NS(=O)(=O)c1ccc(S(=O)(=O)N(C)C)cc1` [Compound 23, N1-(2-((cyclohexylmethyl)(methyl)amino)phenyl)-N4,N4-dimethylbenzene-1,4-disulfonamide]: the concentration giving a half-maximal response (EC50) at TRPML1 worked out at 0.41 µM; with TFEB (HeLa) it was 0.2 µM.
As for `CN(c1ccccc1NS(=O)(=O)c1ccc(S(=O)(=O)N(C)C)cc1)C1CCCC1` [Compound 24, N1-(2-(cyclopentyl(methyl)amino)phenyl)-N4,N4-dimethylbenzene-1,4-disulfonamide], the concentration giving a half-maximal response (EC50) was determined as 0.28 µM at TRPML1 and 1.87 µM in the experiment with TFEB (HeLa).
With `CN(CC1CCCC1)c1ccccc1NS(=O)(=O)c1ccc(S(=O)(=O)N(C)C)cc1` [Compound 25, N1-(2-((cyclopentylmethyl)(methyl)amino)phenyl)-N4,N4-dimethylbenzene-1,4-disulfonamide], the EC50 at TRPML1 is 0.42 µM; in the experiment on TFEB (HeLa) it was 0.54 µM.
The matching figures for `CN(Cc1ccccc1)c1ccccc1NS(=O)(=O)c1ccc(S(=O)(=O)N(C)C)cc1` [Compound 26, N1-(2-(benzyl(methyl)amino)phenyl)-N4,N4-dimethylbenzene-1,4-disulfonamide]: 0.3 µM and 0.83 µM.
Consider `CN(C)S(=O)(=O)c1ccc(S(=O)(=O)Nc2ccccc2N(C)[C@H]2CC[C@H](C)CC2)cc1` [Compound 28, N1,N1-dimethyl-N4-(2-(methyl((1r,4r)-4-methylcyclohexyl)amino)phenyl)benzene-1,4-disulfonamide], for which the results for the EC50 on TRPML1 and in the experiment with TFEB (HeLa) were 0.35 µM and 1.1 µM, respectively.
The matching figures for `CN(c1ccccc1NS(=O)(=O)c1ccc(S(=O)(=O)N(C)C)cc1)C1CCC(C)(C)CC1` [Compound 29, N1-(2-((4,4-dimethylcyclohexyl)(methyl)amino)phenyl)-N4,N4-dimethylbenzene-1,4-disulfonamide]: 0.51 µM and 2.27 µM.
The like results for `CN(C)S(=O)(=O)c1ccc(S(=O)(=O)Nc2ccccc2N(C)[C@H]2CC[C@@H](C)CC2)cc1` [Compound 30, N1,N1-dimethyl-N4-(2-(methyl((1s,4s)-4-methylcyclohexyl)amino)phenyl)benzene-1,4-disulfonamide] were, in that order, 0.36 µM and 1.17 µM.
As for `CN(CC1(C)COC1)c1ccccc1NS(=O)(=O)c1ccc(S(=O)(=O)N(C)C)cc1` [Compound 49, N1,N1-dimethyl-N4-(2-(methyl((3-methyloxetan-3-yl)methyl)amino)phenyl)benzene-1,4-disulfonamide], the values for the half-maximal effective concentration (EC50) on TRPML1 and with TFEB were 1.14 µM and 7.97 µM, respectively.
As to `CN(c1c(NS(=O)(=O)c2ccc(S(=O)(=O)N(C)C)cc2)cccc1C(F)(F)F)C1CCCCC1` [Compound 109, N1-(2-(cyclohexyl(methyl)amino)-3-(trifluoromethyl)phenyl)-N4,N4-dimethylbenzene-1,4-disulfonamide], the EC50 on TRPML1 was 0.28 µM.
Take `CN(CC1CCOC1)c1ccccc1NS(=O)(=O)c1ccc(S(=O)(=O)N(C)C)cc1` (stereo not shown) [Compound 112, N1,N1-dimethyl-N4-(2-(methyl((tetrahydrofuran-3-yl)methyl)amino)phenyl)benzene-1,4-disulfonamide]: the EC50 at TRPML1 is 3.72 µM.
As for `CCOCCCN(C)c1ccccc1NS(=O)(=O)c1ccc(S(=O)(=O)N(C)C)cc1` [Compound 113, N1-(2-((3-ethoxypropyl)(methyl)amino)phenyl)-N4,N4-dimethylbenzene-1,4-disulfonamide], the EC50 on TRPML1 was more than 10 µM.
On to `CN(CCC1CCOCC1)c1ccccc1NS(=O)(=O)c1ccc(S(=O)(=O)N(C)C)cc1` [Compound 114, N1,N1-dimethyl-N4-(2-(methyl(2-(tetrahydro-2H-pyran-4-yl)ethyl)amino)phenyl)benzene-1,4-disulfonamide], for which the EC50 at TRPML1 came out at 4.02 µM.
The same measure, in the same setting: in the case of `CN(c1cc(C(F)(F)F)ccc1NS(=O)(=O)c1ccc(S(=O)(=O)N(C)C)cc1)C1CCCCC1` [Compound 116, N1-(2-(cyclohexyl(methyl)amino)-4-(trifluoromethyl)phenyl)-N4,N4-dimethylbenzene-1,4-disulfonamide] it was 1.03 µM.
